# Measured values as given in ChEMBL document CHEMBL1909046, “DrugMatrix in vitro pharmacology data”.
# Biological target: T1, C-X-C chemokine receptor type 1 (Homo sapiens, UniProt P25024); also: in other assays of this panel Not Active means under 50% inhibition at 10 µM
# T1 sequence (P25024 whole entry): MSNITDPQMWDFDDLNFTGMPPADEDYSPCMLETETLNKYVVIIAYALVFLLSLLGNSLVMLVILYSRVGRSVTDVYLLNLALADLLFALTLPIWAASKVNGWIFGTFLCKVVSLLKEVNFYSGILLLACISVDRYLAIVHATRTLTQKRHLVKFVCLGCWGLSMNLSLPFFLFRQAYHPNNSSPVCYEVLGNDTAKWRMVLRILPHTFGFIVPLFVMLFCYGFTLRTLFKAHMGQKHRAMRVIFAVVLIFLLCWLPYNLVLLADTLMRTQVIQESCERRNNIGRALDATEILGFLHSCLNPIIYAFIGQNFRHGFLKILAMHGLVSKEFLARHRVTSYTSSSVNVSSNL
# Assay: not given
# Settings: not given
row,SMILES,IC50
1,C[C@]12C=CC(=O)C=C1CC[C@@H]1[C@@H]2C(=O)C[C@@]2(C)[C@H]1CC[C@]2(O)C(=O)CO [PREDNISONE],Not Active
2,OCCOCCN1CCN(C2=Nc3ccccc3Sc3ccccc32)CC1 [QUETIAPINE],Not Active
3,COC(=O)[C@H]1[C@H]2C[C@@H]3c4[nH]c5cc(OC)ccc5c4CCN3C[C@H]2C[C@@H](OC(=O)c2cc(OC)c(OC)c(OC)c2)[C@@H]1OC [RESERPINE],Not Active
4,O=C(O)c1ccccc1O [SALICYLIC ACID],Not Active
5,C[S+]([O-])c1ccc(-c2nc(-c3ccncc3)c(-c3ccc(F)cc3)[nH]2)cc1 (centres undefined) [SB-203580],Not Active

# Biological target: Prostaglandin G/H synthase 1 (Homo sapiens, UniProt P23219);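 also: inhibition of COX-1 enzyme activity, with arachidonic acid supplied as substrate; in other assays of this panel Not Active means under 50% inhibition at 10 µM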
# Assay: biochemical
# Format: tissue-based, Platelet
# Settings: platelet
# Sequence of Prostaglandin G/H synthase 1 (P23219 whole entry): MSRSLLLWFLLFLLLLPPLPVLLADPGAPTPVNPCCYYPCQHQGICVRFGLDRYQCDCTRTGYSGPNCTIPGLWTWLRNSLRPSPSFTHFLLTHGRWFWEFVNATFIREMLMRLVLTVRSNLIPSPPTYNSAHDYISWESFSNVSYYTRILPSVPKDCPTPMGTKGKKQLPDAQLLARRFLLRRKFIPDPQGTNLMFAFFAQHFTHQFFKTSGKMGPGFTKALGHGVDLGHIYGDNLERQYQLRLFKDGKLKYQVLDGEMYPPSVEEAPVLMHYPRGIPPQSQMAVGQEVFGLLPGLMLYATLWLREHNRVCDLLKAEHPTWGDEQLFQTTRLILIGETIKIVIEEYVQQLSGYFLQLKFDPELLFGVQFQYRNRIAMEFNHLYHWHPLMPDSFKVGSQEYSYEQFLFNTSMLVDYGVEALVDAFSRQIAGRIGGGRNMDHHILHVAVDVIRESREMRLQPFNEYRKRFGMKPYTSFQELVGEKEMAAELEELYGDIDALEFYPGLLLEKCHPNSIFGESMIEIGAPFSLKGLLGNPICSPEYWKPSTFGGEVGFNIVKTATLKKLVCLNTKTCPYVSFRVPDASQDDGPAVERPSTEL
row,SMILES,IC50
1,C[C@]12C=CC(=O)C=C1CC[C@@H]1[C@@H]2C(=O)C[C@@]2(C)[C@H]1CC[C@]2(O)C(=O)CO [PREDNISONE],Not Active
2,OCCOCCN1CCN(C2=Nc3ccccc3Sc3ccccc32)CC1 [QUETIAPINE],Not Active
3,COC(=O)[C@H]1[C@H]2C[C@@H]3c4[nH]c5cc(OC)ccc5c4CCN3C[C@H]2C[C@@H](OC(=O)c2cc(OC)c(OC)c(OC)c2)[C@@H]1OC [RESERPINE],Not Active
4,O=C(O)c1ccccc1O [SALICYLIC ACID],Not Active
5,C[S+]([O-])c1ccc(-c2nc(-c3ccncc3)c(-c3ccc(F)cc3)[nH]2)cc1 (centres undefined) [SB-203580],Not Active

# Biological target: Insulin receptor (Rattus norvegicus, UniProt P15127); also: in other assays of this panel Not Active means under 50% inhibition at 10 µM
# Assay: not given
# Format: cell membranes, Wistar, Liver, Membrane
# Settings: not given
# Sequence of Insulin receptor (P15127 27-759 limits assumed): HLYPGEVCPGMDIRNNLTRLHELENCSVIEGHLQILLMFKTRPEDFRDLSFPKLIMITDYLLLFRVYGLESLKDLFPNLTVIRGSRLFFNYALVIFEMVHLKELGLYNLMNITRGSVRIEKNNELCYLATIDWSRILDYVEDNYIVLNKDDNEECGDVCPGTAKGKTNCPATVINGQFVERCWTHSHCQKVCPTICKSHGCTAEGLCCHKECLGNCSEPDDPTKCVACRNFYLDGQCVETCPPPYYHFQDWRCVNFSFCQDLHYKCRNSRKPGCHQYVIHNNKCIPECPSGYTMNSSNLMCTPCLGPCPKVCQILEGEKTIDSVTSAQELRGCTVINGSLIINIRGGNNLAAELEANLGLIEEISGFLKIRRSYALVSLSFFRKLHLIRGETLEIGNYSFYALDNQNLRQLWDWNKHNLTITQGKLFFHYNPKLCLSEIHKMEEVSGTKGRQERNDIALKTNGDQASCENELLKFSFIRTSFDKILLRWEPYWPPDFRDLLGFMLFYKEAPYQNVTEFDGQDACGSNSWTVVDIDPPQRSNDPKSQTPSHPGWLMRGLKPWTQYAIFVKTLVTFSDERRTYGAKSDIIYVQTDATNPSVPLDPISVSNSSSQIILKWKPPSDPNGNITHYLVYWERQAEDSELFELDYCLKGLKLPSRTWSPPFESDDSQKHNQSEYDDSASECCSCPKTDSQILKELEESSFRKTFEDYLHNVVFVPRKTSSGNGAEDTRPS
# Sequence of Insulin receptor (P15127 764-1383 limits assumed): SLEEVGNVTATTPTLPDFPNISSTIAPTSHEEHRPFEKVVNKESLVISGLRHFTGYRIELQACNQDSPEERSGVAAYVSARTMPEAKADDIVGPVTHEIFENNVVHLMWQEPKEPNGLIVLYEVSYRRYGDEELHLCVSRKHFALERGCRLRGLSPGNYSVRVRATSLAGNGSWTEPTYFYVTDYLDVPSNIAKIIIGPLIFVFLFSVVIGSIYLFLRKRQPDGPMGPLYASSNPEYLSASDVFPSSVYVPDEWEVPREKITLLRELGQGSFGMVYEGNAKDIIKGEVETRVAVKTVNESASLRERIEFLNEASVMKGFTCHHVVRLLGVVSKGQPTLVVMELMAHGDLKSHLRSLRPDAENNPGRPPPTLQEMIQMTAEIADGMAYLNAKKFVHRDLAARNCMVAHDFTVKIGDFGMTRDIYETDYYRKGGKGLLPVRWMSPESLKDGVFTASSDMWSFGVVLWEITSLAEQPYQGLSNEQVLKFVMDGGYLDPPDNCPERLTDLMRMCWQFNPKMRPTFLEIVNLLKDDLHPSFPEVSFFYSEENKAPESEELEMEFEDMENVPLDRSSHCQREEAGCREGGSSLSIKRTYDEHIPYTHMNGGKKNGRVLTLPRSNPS
row,SMILES,IC50
1,C[C@]12C=CC(=O)C=C1CC[C@@H]1[C@@H]2C(=O)C[C@@]2(C)[C@H]1CC[C@]2(O)C(=O)CO [PREDNISONE],Not Active
2,OCCOCCN1CCN(C2=Nc3ccccc3Sc3ccccc32)CC1 [QUETIAPINE],Not Active
3,COC(=O)[C@H]1[C@H]2C[C@@H]3c4[nH]c5cc(OC)ccc5c4CCN3C[C@H]2C[C@@H](OC(=O)c2cc(OC)c(OC)c(OC)c2)[C@@H]1OC [RESERPINE],Not Active
4,O=C(O)c1ccccc1O [SALICYLIC ACID],Not Active
5,C[S+]([O-])c1ccc(-c2nc(-c3ccncc3)c(-c3ccc(F)cc3)[nH]2)cc1 (centres undefined) [SB-203580],Not Active

# Biological target: T2, Neuropeptide Y receptor type 1 (Homo sapiens, UniProt P25929); also: in other assays of this panel Not Active means under 50% inhibition at 10 µM
# T2 sequence (P25929 whole entry): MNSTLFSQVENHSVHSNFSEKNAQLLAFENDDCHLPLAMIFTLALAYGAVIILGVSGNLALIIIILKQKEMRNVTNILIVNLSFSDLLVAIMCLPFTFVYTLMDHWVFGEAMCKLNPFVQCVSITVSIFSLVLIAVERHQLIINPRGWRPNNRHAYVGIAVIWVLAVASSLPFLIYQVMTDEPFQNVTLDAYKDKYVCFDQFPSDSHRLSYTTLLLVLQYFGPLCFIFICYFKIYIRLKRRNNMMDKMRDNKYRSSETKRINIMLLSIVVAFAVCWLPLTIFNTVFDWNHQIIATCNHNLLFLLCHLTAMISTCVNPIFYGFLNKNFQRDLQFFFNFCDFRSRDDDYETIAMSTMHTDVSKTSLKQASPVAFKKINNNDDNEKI
# Assay: not given
# Format: cell membranes, Membrane
# Settings: sk-n-mc
row,SMILES,IC50
1,C[C@]12C=CC(=O)C=C1CC[C@@H]1[C@@H]2C(=O)C[C@@]2(C)[C@H]1CC[C@]2(O)C(=O)CO [PREDNISONE],Not Active
2,OCCOCCN1CCN(C2=Nc3ccccc3Sc3ccccc32)CC1 [QUETIAPINE],Not Active
3,COC(=O)[C@H]1[C@H]2C[C@@H]3c4[nH]c5cc(OC)ccc5c4CCN3C[C@H]2C[C@@H](OC(=O)c2cc(OC)c(OC)c(OC)c2)[C@@H]1OC [RESERPINE],Not Active
4,O=C(O)c1ccccc1O [SALICYLIC ACID],Not Active
5,C[S+]([O-])c1ccc(-c2nc(-c3ccncc3)c(-c3ccc(F)cc3)[nH]2)cc1 (centres undefined) [SB-203580],Not Active

# Biological target: Nitric oxide synthase 1 (Rattus norvegicus, UniProt P29476); also: in other assays of this panel Not Active means under 50% inhibition at 10 µM
# Assay: not given
# Format: tissue-based, Cerebellum
# Settings: not given
# Sequence of Nitric oxide synthase 1 (P29476 whole entry): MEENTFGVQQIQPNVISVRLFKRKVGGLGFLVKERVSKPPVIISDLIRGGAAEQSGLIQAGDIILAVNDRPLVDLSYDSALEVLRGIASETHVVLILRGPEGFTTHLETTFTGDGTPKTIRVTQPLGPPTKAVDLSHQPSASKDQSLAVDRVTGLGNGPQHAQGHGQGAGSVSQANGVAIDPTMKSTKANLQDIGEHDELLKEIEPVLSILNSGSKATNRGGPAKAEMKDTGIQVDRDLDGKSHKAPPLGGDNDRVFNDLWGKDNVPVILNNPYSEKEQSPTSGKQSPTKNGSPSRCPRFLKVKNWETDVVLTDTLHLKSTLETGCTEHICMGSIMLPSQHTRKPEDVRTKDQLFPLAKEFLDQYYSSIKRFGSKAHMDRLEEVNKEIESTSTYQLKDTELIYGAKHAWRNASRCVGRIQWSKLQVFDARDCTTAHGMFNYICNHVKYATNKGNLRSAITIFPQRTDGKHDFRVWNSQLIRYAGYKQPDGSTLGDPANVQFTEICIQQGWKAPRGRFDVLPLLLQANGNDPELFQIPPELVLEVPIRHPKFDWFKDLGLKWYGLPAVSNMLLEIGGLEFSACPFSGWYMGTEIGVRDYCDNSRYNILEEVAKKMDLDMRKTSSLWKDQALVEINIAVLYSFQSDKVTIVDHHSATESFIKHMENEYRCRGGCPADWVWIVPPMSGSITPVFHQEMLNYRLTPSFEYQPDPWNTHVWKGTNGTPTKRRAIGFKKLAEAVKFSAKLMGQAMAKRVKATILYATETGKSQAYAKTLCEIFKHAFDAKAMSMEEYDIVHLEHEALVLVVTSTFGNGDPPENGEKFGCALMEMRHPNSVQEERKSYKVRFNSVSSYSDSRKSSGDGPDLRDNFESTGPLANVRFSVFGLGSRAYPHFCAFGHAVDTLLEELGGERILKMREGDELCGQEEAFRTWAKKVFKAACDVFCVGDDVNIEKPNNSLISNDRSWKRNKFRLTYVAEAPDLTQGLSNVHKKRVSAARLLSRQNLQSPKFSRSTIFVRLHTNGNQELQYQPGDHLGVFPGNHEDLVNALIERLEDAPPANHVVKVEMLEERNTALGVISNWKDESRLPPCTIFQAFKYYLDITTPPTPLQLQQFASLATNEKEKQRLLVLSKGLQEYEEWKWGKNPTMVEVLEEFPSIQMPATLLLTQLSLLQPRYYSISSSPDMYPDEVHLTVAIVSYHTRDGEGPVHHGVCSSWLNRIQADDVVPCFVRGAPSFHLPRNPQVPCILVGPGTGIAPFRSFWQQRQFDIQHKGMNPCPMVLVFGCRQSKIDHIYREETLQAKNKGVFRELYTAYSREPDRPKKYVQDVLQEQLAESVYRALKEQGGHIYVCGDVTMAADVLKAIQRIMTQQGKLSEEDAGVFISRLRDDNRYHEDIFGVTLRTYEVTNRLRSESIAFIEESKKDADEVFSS
row,SMILES,IC50
1,C[C@]12C=CC(=O)C=C1CC[C@@H]1[C@@H]2C(=O)C[C@@]2(C)[C@H]1CC[C@]2(O)C(=O)CO [PREDNISONE],Not Active
2,OCCOCCN1CCN(C2=Nc3ccccc3Sc3ccccc32)CC1 [QUETIAPINE],Not Active
3,COC(=O)[C@H]1[C@H]2C[C@@H]3c4[nH]c5cc(OC)ccc5c4CCN3C[C@H]2C[C@@H](OC(=O)c2cc(OC)c(OC)c(OC)c2)[C@@H]1OC [RESERPINE],Not Active
4,O=C(O)c1ccccc1O [SALICYLIC ACID],Not Active
5,C[S+]([O-])c1ccc(-c2nc(-c3ccncc3)c(-c3ccc(F)cc3)[nH]2)cc1 (centres undefined) [SB-203580],Not Active

# Biological target: Mitogen-activated protein kinase 1 (Homo sapiens, UniProt P28482)
# Assay: DRUGMATRIX: Protein Serine/Threonine Kinase, ERK2 enzyme inhibition (substrate: Myelin Basic Protein)
# Design: species or system Escherichia coli
# Settings: Not Active = under 50% inhibition at 10 µM
# Sequence of Mitogen-activated protein kinase 1 (P28482 whole entry): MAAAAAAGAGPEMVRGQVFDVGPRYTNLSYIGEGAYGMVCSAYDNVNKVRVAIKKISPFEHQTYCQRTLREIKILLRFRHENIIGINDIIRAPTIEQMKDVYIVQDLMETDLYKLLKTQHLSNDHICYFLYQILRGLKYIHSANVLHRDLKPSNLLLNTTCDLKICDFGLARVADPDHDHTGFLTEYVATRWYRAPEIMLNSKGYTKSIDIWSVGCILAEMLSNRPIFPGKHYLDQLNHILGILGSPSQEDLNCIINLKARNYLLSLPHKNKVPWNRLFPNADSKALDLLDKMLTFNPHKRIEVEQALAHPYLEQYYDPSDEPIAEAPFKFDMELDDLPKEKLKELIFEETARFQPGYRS
row,SMILES,IC50
1,C[C@]12C=CC(=O)C=C1CC[C@@H]1[C@@H]2C(=O)C[C@@]2(C)[C@H]1CC[C@]2(O)C(=O)CO [PREDNISONE],Not Active
2,OCCOCCN1CCN(C2=Nc3ccccc3Sc3ccccc32)CC1 [QUETIAPINE],Not Active
3,COC(=O)[C@H]1[C@H]2C[C@@H]3c4[nH]c5cc(OC)ccc5c4CCN3C[C@H]2C[C@@H](OC(=O)c2cc(OC)c(OC)c(OC)c2)[C@@H]1OC [RESERPINE],Not Active
4,O=C(O)c1ccccc1O [SALICYLIC ACID],Not Active

# Biological target: T3, Receptor-type tyrosine-protein phosphatase C (Homo sapiens, UniProt P08575)
# T3 sequence (P08575 whole entry): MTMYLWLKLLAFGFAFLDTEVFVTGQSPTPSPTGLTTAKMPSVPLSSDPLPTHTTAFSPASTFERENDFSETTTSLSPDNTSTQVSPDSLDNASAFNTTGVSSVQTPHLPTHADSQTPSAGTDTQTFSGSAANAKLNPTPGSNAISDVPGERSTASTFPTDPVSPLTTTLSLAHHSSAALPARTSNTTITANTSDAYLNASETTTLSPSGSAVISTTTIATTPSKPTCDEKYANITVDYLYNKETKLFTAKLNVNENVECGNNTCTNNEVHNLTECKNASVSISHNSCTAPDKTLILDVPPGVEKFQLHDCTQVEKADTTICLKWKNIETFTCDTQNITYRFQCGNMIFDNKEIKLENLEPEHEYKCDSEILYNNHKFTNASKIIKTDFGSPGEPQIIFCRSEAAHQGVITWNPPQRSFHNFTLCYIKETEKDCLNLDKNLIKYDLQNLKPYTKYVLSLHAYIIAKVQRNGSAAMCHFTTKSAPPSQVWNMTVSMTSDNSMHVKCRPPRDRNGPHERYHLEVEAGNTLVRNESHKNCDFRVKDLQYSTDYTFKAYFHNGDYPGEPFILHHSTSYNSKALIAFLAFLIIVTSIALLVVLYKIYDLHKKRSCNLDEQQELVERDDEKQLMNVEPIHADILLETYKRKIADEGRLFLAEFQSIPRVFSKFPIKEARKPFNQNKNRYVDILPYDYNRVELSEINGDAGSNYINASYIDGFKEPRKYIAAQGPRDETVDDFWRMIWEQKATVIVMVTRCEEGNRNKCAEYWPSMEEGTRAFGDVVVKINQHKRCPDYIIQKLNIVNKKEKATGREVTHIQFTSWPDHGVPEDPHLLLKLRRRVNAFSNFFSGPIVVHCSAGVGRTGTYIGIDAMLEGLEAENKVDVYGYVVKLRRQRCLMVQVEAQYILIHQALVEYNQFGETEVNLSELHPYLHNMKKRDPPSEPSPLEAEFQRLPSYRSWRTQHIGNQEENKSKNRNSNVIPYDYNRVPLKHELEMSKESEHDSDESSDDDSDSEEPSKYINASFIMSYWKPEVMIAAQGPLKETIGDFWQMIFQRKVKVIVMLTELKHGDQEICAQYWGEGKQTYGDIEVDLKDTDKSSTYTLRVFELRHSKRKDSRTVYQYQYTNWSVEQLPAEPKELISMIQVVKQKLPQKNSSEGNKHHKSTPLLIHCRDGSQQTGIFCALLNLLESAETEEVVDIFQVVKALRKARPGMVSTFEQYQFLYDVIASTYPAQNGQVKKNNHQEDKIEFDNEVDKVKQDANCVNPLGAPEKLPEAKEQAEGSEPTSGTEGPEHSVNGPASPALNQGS
# Assay: not given
# Design: species or system Escherichia coli
# Settings: not given
row,SMILES,IC50
1,C[C@]12C=CC(=O)C=C1CC[C@@H]1[C@@H]2C(=O)C[C@@]2(C)[C@H]1CC[C@]2(O)C(=O)CO [PREDNISONE],Not Active
2,OCCOCCN1CCN(C2=Nc3ccccc3Sc3ccccc32)CC1 [QUETIAPINE],Not Active
3,COC(=O)[C@H]1[C@H]2C[C@@H]3c4[nH]c5cc(OC)ccc5c4CCN3C[C@H]2C[C@@H](OC(=O)c2cc(OC)c(OC)c(OC)c2)[C@@H]1OC [RESERPINE],Not Active
4,O=C(O)c1ccccc1O [SALICYLIC ACID],Not Active
5,C[S+]([O-])c1ccc(-c2nc(-c3ccncc3)c(-c3ccc(F)cc3)[nH]2)cc1 (centres undefined) [SB-203580],Not Active

# Biological target: 5-hydroxytryptamine receptor 1B (Rattus norvegicus, UniProt P28564); also: in other assays of this panel Not Active means under 50% inhibition at 10 µM
# Assay: not given
# Format: cell membranes, Wistar, Cerebral cortex, Membrane
# Settings: not given
# Sequence of 5-hydroxytryptamine receptor 1B (P28564 whole entry): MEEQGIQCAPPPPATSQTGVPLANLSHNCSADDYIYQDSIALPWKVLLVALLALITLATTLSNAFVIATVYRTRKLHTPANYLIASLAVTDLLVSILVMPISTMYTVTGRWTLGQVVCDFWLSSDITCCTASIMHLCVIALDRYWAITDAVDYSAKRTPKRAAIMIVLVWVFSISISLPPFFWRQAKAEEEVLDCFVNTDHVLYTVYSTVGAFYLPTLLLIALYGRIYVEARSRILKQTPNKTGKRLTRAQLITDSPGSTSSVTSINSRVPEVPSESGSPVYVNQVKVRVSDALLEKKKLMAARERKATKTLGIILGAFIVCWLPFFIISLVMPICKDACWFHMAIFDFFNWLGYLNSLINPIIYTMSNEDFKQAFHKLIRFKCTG
row,SMILES,IC50
1,C[C@]12C=CC(=O)C=C1CC[C@@H]1[C@@H]2C(=O)C[C@@]2(C)[C@H]1CC[C@]2(O)C(=O)CO [PREDNISONE],Not Active
2,OCCOCCN1CCN(C2=Nc3ccccc3Sc3ccccc32)CC1 [QUETIAPINE],Not Active
3,COC(=O)[C@H]1[C@H]2C[C@@H]3c4[nH]c5cc(OC)ccc5c4CCN3C[C@H]2C[C@@H](OC(=O)c2cc(OC)c(OC)c(OC)c2)[C@@H]1OC [RESERPINE],Not Active
4,O=C(O)c1ccccc1O [SALICYLIC ACID],Not Active
5,C[S+]([O-])c1ccc(-c2nc(-c3ccncc3)c(-c3ccc(F)cc3)[nH]2)cc1 (centres undefined) [SB-203580],Not Active
